A melting point compilation (Tetko et al.; mined from patent text by program, amines drawn as free bases though some values may be those of a salt)

melting point [°C] | Compound
114 to 116 | CCCC(=O)c1cnc2ccsc2c1Nc1ccccc1C
229 to 231 | NCc1ccc(N2CCCN(c3ccc(CCC(=O)O)cc3)C2=O)cc1
99 to 100 | CCOC(=O)c1csc(C)c1N(CC)c1nc(C)cc(C)n1
223 to 225 | CCn1c(=O)n(O)c(=O)c2c(F)c(F)c(N3CCCC3)c(F)c21
87.9 to 90 | COc1cc2c(cc1OCc1ccccc1)CC(C)(C)N=C2C
220 to 223 | CC1(C)CCC(C)(C)c2cc(C#Cc3ccc(C(N)=O)cc3)ccc21
110 to 112 | O=C(c1ccc(Br)cc1)N1CC(=O)N(CCc2ccccc2)C(=O)C1
310 to 335 | CN1CCc2c(ccc3[nH]c(=O)c(=O)[nH]c23)C1
129 to 133 | CC12C=CC(O)CC1CCC1C2CCC2(C)C(C#N)CCC12 (stereo not given)
118 to 126 | O=C(COc1cc(Cl)c(Cl)c([N+](=O)[O-])c1)c1ccccc1
112 to 114 | Cc1c(F)cc(C(=O)NC2CC2)cc1I
133 to 134 | CN(C)NC(=O)N1CCC(=Cc2cc(C(C)(C)C)c(O)c(C(C)(C)C)c2)C1=O
155 to 156 | CCOC(=O)C(C)(C)Sc1ncnc2c(O)n(C)nc12
109 to 110 | C=C(CC(=O)O)c1ccc(-c2ccc(F)cc2F)cc1
140 to 142 | O=c1[nH]c2ccccc2c(=O)n1CCCCN1CCC(OC(c2ccccc2)c2ccccc2)CC1
97 to 99 | CCOC(=O)N1CCC(Nc2cc(OC)ccc2N)CC1
141 to 142 | CCOC(=O)c1cc(C(=O)CBr)c(=O)[nH]c1C(=O)OCC
181 to 183 | CC(C)(C)ON=C1CC(=NOC(C)(C)C)c2ccccc2-c2ccccc21

The remaining lines, values behind:

Compound | melting point [°C]
CC1(C)Oc2ccc(C#N)cc2[C@@H](N2CCSC2=NC#N)[C@@H]1O | 272 to 274
CCCN(CCC)C(=O)Cn1c(-c2ccc(C)s2)nc2cccnc21 | 125 to 127
Cc1ccc(C(=O)c2ccc(Cc3c(Cl)cc([N+](=O)[O-])cc3Cl)cc2)cn1 | 121 to 123
CCN(c1nc2ccccc2c(=O)o1)c1ccccc1I | 129 to 130
CCOC1CN(Cc2ccc(OC)cc2)Cc2cc(OC)c(OCc3ccccc3)cc21 (stereo not given) | 84 to 85
NC(=O)c1cc(F)c(-n2ncc(Cl)c(Cl)c2=O)cc1F | > 260
CC(C)c1ccc(OC(Cc2ccc(OCCNC(=O)c3ccc(-c4ccc(F)cc4)nc3)cc2)C(=O)O)cc1 (stereo not given) | 199 to 200
Fc1ccc(/C=C/c2nc(COc3cccc(CCCn4ccnn4)c3)co2)c(F)c1 | 89 to 90
CC(C)(C)Nc1nc(-c2ccc(F)cc2)c(-c2ccc(S(C)(=O)=O)cc2)s1 | 250 to 253
NS(=O)(=O)c1ccc(-c2cccc(-c3nc(-c4ccc(C(F)(F)F)c(F)c4)cc(C(F)(F)F)n3)c2)s1 | 214
CC(C)CC(=O)NCc1ccc(NC(=O)/C=C/c2cnn(C)c2-c2ccc(F)cc2)cc1 | 226 to 227
CN(C)c1ccc(C2(c3ccc(N(C)C)cc3N(C)C)OC(=O)c3ccccc32)cc1 (stereo not given) | 190 to 194
OC(c1nn(-c2c(Cl)cc(C(F)(F)F)cc2Cl)cc1C1CC1(Br)Br)C(F)(F)F (stereo not given) | 119 to 121
O=C1CC(C(=O)OCc2ccccc2)C(=O)C(Cc2ccccc2)N1 (stereo not given) | 119 to 120
Cc1nc2c(C(F)(F)F)cccc2c(O)c1C(=O)O | 260
NC(=O)CCCCCCCCCCC(Cl)(Cl)C(=O)O | 93 to 94
CCOC(=O)c1sc(-n2ccc(OCC3CC3)cc2=O)nc1C | 180 to 183
CCCCOc1cc(CCC(=O)O)n(Cc2ccc(C(F)(F)F)cc2Cl)n1 | 125 to 126
CCC(C)(CC)c1ccc(=O)[nH]n1 | 97 to 99
CC1=C(Cc2ncc[nH]2)CCc2ccccc21 | 209 to 211
CC(=O)c1cccc2nnsc12 | 126 to 127
CCc1cnc(N2CCN(C(=O)c3ccc(Nc4ncnc5ccccc45)cc3)CC2)nc1 | 248 to 249
